Reference: paper PMC4013293 (Bioorganic & medicinal chemistry, 2013)

Legend:
human ERα = target: T1, human ERα (Homo sapiens, UniProt P03372); assay: Fluorescence polarization displacement assay with FITC-estradiol; type: binding; conditions: fluorescence polarization screen of twelve compounds
T1 sequence (P03372 1-595): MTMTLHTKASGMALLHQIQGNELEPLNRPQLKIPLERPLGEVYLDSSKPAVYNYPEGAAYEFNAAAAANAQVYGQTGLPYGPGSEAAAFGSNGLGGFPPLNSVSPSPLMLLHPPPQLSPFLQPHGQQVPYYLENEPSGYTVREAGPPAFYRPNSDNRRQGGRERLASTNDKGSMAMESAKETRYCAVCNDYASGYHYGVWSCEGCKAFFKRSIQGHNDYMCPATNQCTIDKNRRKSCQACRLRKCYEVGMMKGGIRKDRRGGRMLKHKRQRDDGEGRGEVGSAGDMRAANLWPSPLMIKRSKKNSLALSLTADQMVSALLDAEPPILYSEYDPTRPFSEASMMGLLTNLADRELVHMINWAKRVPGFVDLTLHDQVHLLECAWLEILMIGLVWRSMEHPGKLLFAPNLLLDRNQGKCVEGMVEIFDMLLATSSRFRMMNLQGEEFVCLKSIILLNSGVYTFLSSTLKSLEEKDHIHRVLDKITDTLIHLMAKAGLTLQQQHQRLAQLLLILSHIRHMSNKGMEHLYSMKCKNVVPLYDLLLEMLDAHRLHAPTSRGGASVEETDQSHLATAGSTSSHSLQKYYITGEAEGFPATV

ERβ = ERβ (Homo sapiens, UniProt Q92731); assay: Cell-based ERβ luciferase reporter luminescence assay, agonist mode; conditions: read-out: ERβ agonist IC50; luciferase reporter cells, 22 h, duplicate
Sequence of ERβ (Q92731 whole entry): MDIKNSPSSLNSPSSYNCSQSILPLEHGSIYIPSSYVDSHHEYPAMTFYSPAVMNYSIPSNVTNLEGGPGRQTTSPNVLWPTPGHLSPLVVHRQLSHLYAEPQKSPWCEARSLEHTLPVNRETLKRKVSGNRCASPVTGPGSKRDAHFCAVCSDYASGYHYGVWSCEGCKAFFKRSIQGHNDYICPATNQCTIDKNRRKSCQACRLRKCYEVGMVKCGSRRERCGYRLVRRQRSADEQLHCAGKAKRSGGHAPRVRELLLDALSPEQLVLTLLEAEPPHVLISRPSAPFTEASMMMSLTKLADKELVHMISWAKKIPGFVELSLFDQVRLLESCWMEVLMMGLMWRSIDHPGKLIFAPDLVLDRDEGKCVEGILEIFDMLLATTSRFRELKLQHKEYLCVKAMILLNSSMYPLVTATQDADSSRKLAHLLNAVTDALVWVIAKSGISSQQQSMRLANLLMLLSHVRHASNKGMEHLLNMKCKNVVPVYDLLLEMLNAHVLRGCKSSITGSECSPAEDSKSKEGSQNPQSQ

CCCOC(=O)C1CC[C@H]2[C@@H]3CCc4cc(O)ccc4[C@H]3CC[C@]12C (stereo partly drawn) [Compound 4, n-Propyl 3-hydroxyestra-1,3,5(10)-triene-17-carboxylate]
Affinity for ERα at concentrations as high as 1 μM (in words) (human ERα): significant affinity

C[C@@H](CCO)C1=CC[C@H]2[C@@H]3CCc4cc(O)ccc4[C@H]3CC[C@]12C [Compound 11, (20S) 3-Hydroxy-19,24-Dinorchola-1,3,5(10),16-tetraen-23-ol]
Affinity for ERα at concentrations as high as 1 μM (in words) (human ERα): significant affinity

OC[C@H]1CCC[C@@H](c2ccc(O)cc2)CC1 (relative stereo) [Compound 18, cis-1-Hydroxymethyl-4-(4′-hydroxyphenyl)-cycloheptane]
Affinity for ERα at concentrations as high as 1 μM (in words) (human ERα): significant affinity | IC50 (ERβ): 5.4 ± 0.3 nM

CC[C@H](C)C1=CC[C@H]2[C@@H]3CCc4cc(O)ccc4[C@H]3CC[C@]12C [Compound 7, (20S) 3-Hydroxy-19,24-dinorchola-1,3,5(10),16-tetraene]
Affinity for ERα at concentrations as high as 1 μM (in words) (human ERα): significant affinity

CC1C[C@H](C)C2(CC[C@H]3[C@@H]4CCc5cc(O)ccc5[C@H]4CC[C@@]32C)O1 (stereo partly drawn) [Compound 13, 17,23-Epoxy-3-hydroxy-19-norchola-1,3,5(10)-triene]
Affinity for ERα at concentrations as high as 1 μM (in words) (human ERα): significant affinity
